Source: PMC12375005 (Communications Biology, 2025)

Assays:
TcGSTm8 = biological target: T1, TcGSTm8 (Tetranychus cinnabarinus, UniProt U5YE47); assay: inhibition of CDNB conjugation; assay type: biochemical; conditions: 6 mM GSH; 0.6 mM CDNB; 10 min preincubation 25 °C; 5% acetone
T1 sequence (U5YE47 1-227): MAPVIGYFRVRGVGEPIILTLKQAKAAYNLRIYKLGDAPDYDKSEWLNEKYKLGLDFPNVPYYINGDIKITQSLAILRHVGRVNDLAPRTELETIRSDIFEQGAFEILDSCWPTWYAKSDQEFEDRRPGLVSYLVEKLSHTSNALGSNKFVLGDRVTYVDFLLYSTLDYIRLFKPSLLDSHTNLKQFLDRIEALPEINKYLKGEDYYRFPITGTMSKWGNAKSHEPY

TcCCE34 = assay: inhibition of alpha-naphthyl acetate hydrolysis; assay type: biochemical, Tetranychus cinnabarinus; conditions: 3 × 10^−4 mol/L alpha-naphthyl acetate; 10 min preincubation 30 °C; 5% acetone

Structure (SMILES) | IC50 (TcGSTm8) [µM] | IC50 (TcCCE34) [µM]
CCOP(=S)(OCC)Oc1nc(Cl)c(Cl)cc1Cl [chlorpyrifos] | 1180 ± 90 | 57.2 ± 7.42
COCCOC(=O)C(C#N)(C(=O)c1ccccc1C(F)(F)F)c1ccc(C(C)(C)C)cc1 (stereo not drawn) [cyflumetofen] | 1570 ± 110 | 630 ± 39.8
CC1(C)C(C(=O)OC(C#N)c2cccc(Oc3ccccc3)c2)C1(C)C (stereo not drawn) [fenpropathrin] | 1090 ± 50 | 42.5 ± 8.44
